According to the NIST ThermoML archive (doi:10.1021/je101131x):
Numbers after ± are expanded uncertainties.

Details: Liquid

Row | vapor or sublimation pressure (323.15 K) [kPa] | vapor or sublimation pressure (333.15 K) [kPa] | vapor or sublimation pressure (343.15 K) [kPa] | vapor or sublimation pressure (353.15 K) [kPa] | SMILES
1 | 16.09 ± 0.61 | 24.01 ± 0.8 | 34.99 ± 1.1 | 49.92 ± 1.4 | CCCOC(C)=O [propyl ethanoate]
2 | 7.567 ± 0.41 | 12.04 ± 0.51 | 18.66 ± 0.67 | 28.2 ± 0.89 | CC(=O)O [acetic acid]
